Laboratory results as given in patent US10144732B2 (BIOGEN MA INC., priority 2014, dated 2018).
Where “and” joins values, the source holds several entries; their conditions need not be identical. Equal entries are not always repeated. Structures can show the parent of a compound that is named as a salt. Where two headings read alike, the source gives them in different places.

Biological target: T1, Human ATX protein (Homo sapiens, UniProt Q13822)
T1 construct: made in house
Assay: ATX biochemical assay (FRET, FS-3 substrate)
Conditions: FS-3 2 μM, ATX 1.0 μg/mL, 30 minutes preincubation, 2 hours reaction at room temperature
Source text: ATX (Autotaxin) is a 125 KDa glycoprotein with lysophospholipase D (LPLD) activity that generates the bioactive lipid lysophosphatidic acid (LPA) from lysophosphatidylcholine (LPC). The ATX biochemical assay utilizes a FRET (fluorescence resonance energy transfer) technology platform. The fluorescence signal of FRET substrate FS-3 is quenched due to intra-molecular FRET of a fluorophore to a non-fluorescing quencher (Ferguson, C. G., et al., Org Lett. 2006 May 11; 8(10): 2023-2026, which is incorporated by reference in its entirety). ATX catalyzes the hydrolysis of the substrate which separates the dabsyl quencher from the fluorescein reporter, which becomes fluorescent. The reaction is monitored by a SpectraMax M5 (Molecular Devices, Sunnyvale, Calif.) with at excitation wavelength 485 nm and emission wavelength […].
Fatty acid free-BSA (Sigma A8806): 10 mg/mL in H2O, stored at 4° C.
2×ATX assay buffer: 100 mM Tris, 280 mM NaCl, 10 mM KCl, 2 mM CaCl2, 2 mM MgCl2, pH 7.4.
Human ATX protein: expressed and purified in house. Stored at −80° C.
Substrate FS-3 (Echelon, L-2000): 100 μg in 77.74 μL H2O (1 mM stock), stored at −20° C.
384-well flat bottom plates—Corning #3575.
Compound dilution—All compounds were provided at 10 mM in 100% DMSO. In the first well, 2 μL of 10 mM compound was added to 78 μL of DMSO (1:40 dilution). In subsequent wells 3-fold dilution (total 10 dilutions) were performed.
1×ATX assay buffer was made up with a final concentration of 1 mg/mL fatty acid free-BSA using 2×ATX assay buffer, 10 mg/ml fatty acid free-BSA and ddH2O.
[…]. The final concentration of ATX in the reaction as 1.0 μg/mL.
2 μL per well of compounds was transferred to provide the desired concentration. The plate was centrifuged, then incubated at room temperature for 30 minutes on the shaker.
FS-3 was diluted with 1×ATX assay buffer to a concentration of FS-3 of 10 μM (5×). Then, 10 μL was added per well to the assay plate. The final concentration of FS-3 in the reaction was 2 μM. The plate was centrifuged. The plate was kept shaking at room temperature for 2 hours. Because FS-3 substrate is light sensitive, plates were kept covered and protected from light.
Fluorescence was measured using SpectraMax M5 (excitation at 485 nm/emission at 538 nm, top read).

| Structure (SMILES) | IC50 (FRET assay, read-out: IC50) | IC50 (IC50, FRET assay) |
| --- | --- | --- |
| CC1(C)CC(CC(=O)N2CCc3c(C(F)(F)F)nn(Cc4ccc(Cl)cc4F)c3C2)CCN1 (centres unmarked) [Example 9-6, 1-(1-(4-Chloro-2-fluorobenzyl)-3-(trifluoromethyl)-4,5-dihydro-1H-pyrazolo[3,4-c]pyridin-6(7H)-yl)-2-(2,2-dimethylpiperidin-4-yl)ethanone TFA salt] | ≤ 100 nM |  |
| O=C(CC1CCN2CCCC2C1)N1CCc2c(C(F)(F)F)nn(Cc3ccc(F)cc3)c2C1 (centres unmarked) [Example 1-34, 1-(1-(4-Fluorobenzyl)-3-(trifluoromethyl)-4,5-dihydro-1H-pyrazolo[3,4-c]pyridin-6(7H)-yl)-2-(octahydroindolizin-7-yl)ethanone TFA salt] | ≤ 100 nM |  |
| CCOC(=O)C1CCCN(CC(=O)N2CCc3c(C(F)(F)F)nn(Cc4ccc(Cl)cc4F)c3C2)CC1 (centres unmarked) [Example 12-17, TFA salt] | ≤ 100 nM |  |
| O=C(CCc1nc2ccccc2s1)N1CCc2c(C(F)(F)F)nn(Cc3ccc(F)cc3)c2C1 [Example 1-14, 3-(Benzo[d]thiazol-2-yl)-1-(1-(4-fluorobenzyl)-3-(trifluoromethyl)-4,5-dihydro-1H-pyrazolo[3,4-c]pyridin-6(7H)-yl)propan-1-one] | ≤ 100 nM |  |
| O=C(CC1CC2CCC(C1)N2)N1CCc2c(C(F)(F)F)nn(Cc3ccc(Cl)cc3F)c2C1 (centres unmarked) [Example 9-1, 2-(8-Aza-bicyclo[3.2.1]octan-3-yl)-1-(1-(4-chloro-2-fluorobenzyl)-3-(trifluoromethyl)-4,5-dihydro-1H-pyrazolo[3,4-c]pyridin-6(7H)-yl)ethanone TFA salt] |  | ≤ 100 nM |
| O=C(C[C@H]1CC[C@H](N2CC(F)(F)C2)CC1)N1CCc2c(C(F)(F)F)nn(Cc3ccc(F)cc3)c2C1 [Example 22-8, 2-(trans-4-(3,3-difluoroazetidin-1-yl)cyclohexyl)-1-(1-(4-fluorobenzyl)-3-(trifluoromethyl)-4,5-dihydro-1H-pyrazolo[3,4-c]pyridin-6(7H)-yl)ethanone TFA salt] | ≤ 100 nM |  |
| CCOC(=O)[C@H]1CC[C@H](CC(=O)N2CCc3c(C(F)F)nn(Cc4ccc(F)cc4)c3C2)CC1 [Example 1-38, trans-Ethyl 4-(2-(3-(difluoromethyl)-1-(4-fluorobenzyl)-4,5-dihydro-1H-pyrazolo[3,4-c]pyridin-6(7H)-yl)-2-oxoethyl)cyclohexanecarboxylate] | ≤ 100 nM |  |
| CC1CC(CC(=O)N2CCc3c(C(F)(F)F)nn(Cc4ccc(Cl)cc4F)c3C2)CCN1C(=O)OC(C)(C)C (centres unmarked) [Example 8-5, tert-Butyl 4-(2-(1-(4-chloro-2-fluorobenzyl)-3-(trifluoromethyl)-4,5-dihydro-1H-pyrazolo[3,4-c]pyridin-6(7H)-yl)-2-oxoethyl)-2-methylpiperidine-1-carboxylate] | ≤ 100 nM |  |
| O=C(CC1CCN(c2ncccn2)CC1)N1CCc2c(C(F)(F)F)nn(Cc3ccc(F)cc3)c2C1 [Example 18-1, 1-(1-(4-Fluorobenzyl)-3-(trifluoromethyl)-4,5-dihydro-1H-pyrazolo[3,4-c]pyridin-6(7H)-yl)-2-(1-(pyrimidin-2-yl)piperidin-4-yl)ethanone TFA salt] | ≤ 100 nM |  |
| COC(=O)[C@H]1CC[C@H](N(C)C(=O)N2CCc3c(C(F)(F)F)nn(Cc4ccc(Cl)cc4F)c3C2)CC1 [Example 3-4, trans-Methyl 4-(1-(4-chloro-2-fluorobenzyl)-N-methyl-3-(trifluoromethyl)-4,5,6,7-tetrahydro-1H-pyrazolo[3,4-c]pyridine-6-carboxamido)cyclohexanecarboxylate] | 100 to 250 nM |  |
| CCOC(=O)C1CCCN(CC(=O)N2CCc3c(C(F)(F)F)nn(Cc4ccc(F)cc4)c3C2)C1 (centres unmarked) [Example 12-5, Ethyl 1-(2-(1-(4-fluorobenzyl)-3-(trifluoromethyl)-4,5-dihydro-1H-pyrazolo[3,4-c]pyridin-6(7H)-yl)-2-oxoethyl)piperidine-3-carboxylate] | ≤ 100 nM |  |
| O=C(O)C1CCC(CC(=O)N2CCc3cnn(Cc4ccc(F)cc4)c3C2)CC1 (single isomer, unassigned) [Example 7-15, 4-(2-(1-(4-Fluorobenzyl)-4,5-dihydro-1H-pyrazolo[3,4-c]pyridin-6(7H)-yl)-2-oxoethyl)cyclohexanecarboxylic acid] | ≤ 100 nM |  |
| NC(=O)c1nn(Cc2ccc(F)cc2)c2c1CCN(C(=O)C[C@H]1CC[C@H](C(=O)O)CC1)C2 [Example 5-47, trans-4-(2-(3-Carbamoyl-1-(4-fluorobenzyl)-4,5-dihydro-1H-pyrazolo[3,4-c]pyridin-6(7H)-yl)-2-oxoethyl)cyclohexanecarboxylic acid] | 250 to 500 nM |  |
| O=C(C[C@H]1CC[C@H](C(=O)O)CC1)N1CCc2c(C(F)(F)F)nn(CCc3ccccc3)c2C1 [Example 5-16, trans-4-(2-Oxo-2-(1-phenethyl-3-(trifluoromethyl)-4,5-dihydro-1H-pyrazolo[3,4-c]pyridin-6(7H)-yl)ethyl)cyclohexanecarboxylic acid] | 100 to 250 nM |  |
| N[C@H]1CC[C@H](CC(=O)N2CCc3c(C(F)(F)F)nn(Cc4ccc(F)cc4)c3C2)CC1 [Example 9-20, 2-(trans-4-Aminocyclohexyl)-1-(1-(4-fluorobenzyl)-3-(trifluoromethyl)-4,5-dihydro-1H-pyrazolo[3,4-c]pyridin-6(7H)-yl)ethanone TFA salt] | ≤ 100 nM |  |
| O=C(C[C@H]1CC[C@H](C(=O)O)CC1)N1CCc2c(C(F)(F)F)nn(Cc3ccc(Cl)cc3F)c2C1 [Example 5-1, trans-4-(2-(1-(4-Chloro-2-fluorobenzyl)-3-(trifluoromethyl)-4,5-dihydro-1H-pyrazolo[3,4-c]pyridin-6(7H)-yl)-2-oxoethyl)cyclohexanecarboxylic acid] | ≤ 100 nM |  |
| CC1CCC(Cn2nc(C(F)(F)F)c3c2CN(C(=O)C[C@H]2CC[C@H](C(=O)O)CC2)CC3)CC1 (stereo partly drawn) [Example 5-37, trans-4-(2-(1-((4-Methylcyclohexyl)methyl)-3-(trifluoromethyl)-4,5-dihydro-1H-pyrazolo[3,4-c]pyridin-6(7H)-yl)-2-oxoethyl)cyclohexanecarboxylic acid] | ≤ 100 nM |  |
| CC1(C(=O)O)CCC(CC(=O)N2CCc3c(C(F)(F)F)nn(Cc4ccc(Cl)cc4F)c3C2)CC1 (mixture of isomers) [Example 6-5, 4-(2-(1-(4-chloro-2-fluorobenzyl)-3-(trifluoromethyl)-4,5-dihydro-1H-pyrazolo[3,4-c]pyridin-6(7H)-yl)-2-oxoethyl)-1-methylcyclohexanecarboxylic acid] | ≤ 100 nM |  |
| CN1CCC(CC(=O)N2CCc3c(C(F)(F)F)nn(Cc4ccc(Cl)cc4F)c3C2)CC1(C)C (centres unmarked) [Example 10-3, 1-(1-(4-Chloro-2-fluorobenzyl)-3-(trifluoromethyl)-4,5-dihydro-1H-pyrazolo[3,4-c]pyridin-6(7H)-yl)-2-(1,2,2-trimethylpiperidin-4-yl)ethanone TFA salt] | ≤ 100 nM |  |
| O=C(C[C@H]1CC[C@H](C(=O)O)CC1)N1CCc2c(C(F)(F)F)nn(Cc3ccc(Cl)cc3Cl)c2C1 [Example 7-7, trans-4-(2-(1-(2,4-Dichlorobenzyl)-3-(trifluoromethyl)-4,5-dihydro-1H-pyrazolo[3,4-c]pyridin-6(7H)-yl)-2-oxoethyl)cyclohexanecarboxylic acid] | ≤ 100 nM |  |
| O=C(O)C[C@H]1CC[C@@H](CC(=O)N2CCc3c(C(F)(F)F)nn(Cc4ccc(F)cc4)c3C2)CC1 [Example 5-49, 2-(cis-4-(2-(1-(4-Fluorobenzyl)-3-(trifluoromethyl)-4,5-dihydro1H-pyrazolo[3,4-c]pyridin-6(7H)-yl)-2-oxoethyl)cyclohexyl)acetic acid] | ≤ 100 nM |  |
| COC(=O)[C@H]1CC[C@@H](N(C)C(=O)N2CCc3c(C(F)(F)F)nn(Cc4ccc(Cl)cc4F)c3C2)CC1 [Example 3-3, cis-Methyl 4-(1-(4-chloro-2-fluorobenzyl)-N-methyl-3-(trifluoromethyl)-4,5,6,7-tetrahydro-1H-pyrazolo[3,4-c]pyridine-6-carboxamido)cyclohexanecarboxylate] | > 500 nM and ≤ 10000 nM |  |
| CC(C)(C)OC(=O)N1CCC(CC(=O)N2CCc3c(C(F)(F)F)nn(Cc4ccc(Cl)cc4F)c3C2)CC1 [Example 8-2, tert-Butyl 4-(2-(1-(4-chloro-2-fluorobenzyl)-3-(trifluoromethyl)-4,5-dihydro-1H-pyrazolo[3,4-c]pyridin-6(7H)-yl)-2-oxoethyl)piperidine-1-carboxylate] | ≤ 100 nM |  |
